Data taken from article PMC3963952, “The 2.1 Å Resolution Structure of Cyanopindolol-Bound β1-Adrenoceptor Identifies an Intramembrane Na^+ Ion that Stabilises the Ligand-Free Receptor” (PLoS ONE, 2014).

Experiments:
[1] = molecular target: β1AR (Meleagris gallopavo, UniProt P07700)
Experimental: For the thermostability assay for the ligand-free receptor, 1–2.5 mg of E. coli-expressed membrane protein was solubilised for 30 min on ice with 1% DDM and insoluble material was removed by centrifugation (5 min, 20,000 g). Samples were then adjusted to give the desired concentration of NaCl or choline chloride. Thermostability was measured by incubating the sample at the specified temperature for 30 min; reactions were placed on ice, and ^3H-DHA was added (50 nM final concentration) and equilibrated (2 h, 4°C). Receptor-bound and free radioligand were separated by spin gel filtration assays as described previously. Nonspecific binding was determined in the presence of 1 mM alprenolol. Radioactivity was counted on a MicroBeta TriLux scintillation counter (Perkin Elmer), and data were analyzed by nonlinear regression using Prism software (GraphPad).
Figure 4 Thermostability of β1AR mutants.

[2] = molecular target: neurotensin receptor (NTSR1); design: method as in PMID 23051748; details: read-out: EC50 for the allosteric effect of Na+ on NTSR1; cited from earlier work
[3] = tested on: A2AR; details: cited from earlier work

β1AR, sequence (P07700 whole entry): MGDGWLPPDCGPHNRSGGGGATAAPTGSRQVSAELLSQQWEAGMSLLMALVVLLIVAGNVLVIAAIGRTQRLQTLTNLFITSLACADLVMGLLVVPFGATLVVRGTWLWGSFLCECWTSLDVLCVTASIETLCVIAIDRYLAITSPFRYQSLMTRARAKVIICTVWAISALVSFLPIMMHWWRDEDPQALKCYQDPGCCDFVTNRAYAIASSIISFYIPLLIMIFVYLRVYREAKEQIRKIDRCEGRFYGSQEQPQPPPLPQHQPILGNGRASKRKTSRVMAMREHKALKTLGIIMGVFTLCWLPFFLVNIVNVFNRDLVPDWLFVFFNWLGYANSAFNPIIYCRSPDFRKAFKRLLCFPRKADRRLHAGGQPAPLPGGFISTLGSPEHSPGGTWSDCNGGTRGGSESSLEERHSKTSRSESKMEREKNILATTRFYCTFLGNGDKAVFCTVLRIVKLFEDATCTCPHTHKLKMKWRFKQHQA

| Structure (SMILES) | decrease of β1AR thermostability in the absence of Na+ ([1]; ligand-free β1AR, 150 mM NaCl versus 150 mM choline chloride) | EC50 [2] | EC50 ([3]; also calculated from data in ref 21, read-out: EC50 for the allosteric effect of Na+ on A2AR) | Kd ([3]; no reference given, read-out: KD of Na+ binding to A2AR) | apparent Tm of dodecylmaltoside-solubilised ligand-free β1AR ([1]; in 150 mM of the named salt, heated 30 min, ±SEM) |
| --- | --- | --- | --- | --- | --- |
| [Cl-].[Na+] [Na^+] | 7.5 °C | 43 mM | 40 to 48 mM | 40 to 50 mM |  |
| C[N+](C)(C)CCO.[Cl-] [choline chloride] |  |  |  |  | 19.1±0.6 °C |
